Key:
GM01604 cells [1] = assay: LIVE/DEAD cell viability assay; assay type: cell-based, human; conditions: for Dead cells: MUS81-depleted cells
Experimental: Cell Viability Live/Dead Assays: GM01604 cells were transfected with siRNAs directed against GFP (Ctrl), or against MUS81 (Qiagen), BRCA2 (Sigma-Aldrich), and RAD52 (Qiagen) 48 hours prior to addition of 1 μM ‘1’. Where indicated, the conditions of pathological replication were induced by treating cells with 2 mM HU and 300 nM UCN01 for 6 h or by a 18 hours treatment with 2 mM HU, in the presence or absence of ‘1’. Viability was evaluated by the LIVE/DEAD assay (Sigma-Aldrich) according to the manufacturer's instructions. Cell number was counted in randomly chosen fields and expressed as percent of dead cells (number of red nuclear stained cells divided by the total cell number) corrected for the cell loss observed in the population. For each time point, at least 200 cells were counted.

GM01604 cells [2] = assay: Anaphase bridges after aphidicolin (MUS81 activity); assay type: cell-based, human; conditions: aphidicolin 24 h, increasing concentration of compound
Experimental: Forty eight hours after transfection the fibroblasts were lysed and analysed by WB with the indicated antibodies. b) Forty eight hours after transfection, GM01604 cells were exposed to […] aphidicolin (APH) for 24 h in the presence (grey bars) or absence (white bars) of increasing concentration of ‘1’ added in the last 3 h before aphidicolin treatment. Results are presented as mean±SEM from two independent replicates. c) The presence of anaphase bridges, as shown in the representative images, was scored in DAPI-stained cells. The white bars indicate 10 μm.

[3] = target: T1, interaction between RAD52 and RPA proteins (Homo sapiens, UniProt P43351); assay: Ni-NTA pull-down of RAD52 and RPA; assay type: binding; conditions: 3 μM RAD52, 3 μM RPA, 3 μM compound
T1 construct: made in house

RAD52 = target: T2, RAD52 (Homo sapiens, UniProt P43351); assay: WaterLOGSY NMR analysis of compound binding to RAD52; set-up: made in house; conditions: 20 or 40 μM compound, 3.3 μM RAD52
T2 sequence (P43351 1-418): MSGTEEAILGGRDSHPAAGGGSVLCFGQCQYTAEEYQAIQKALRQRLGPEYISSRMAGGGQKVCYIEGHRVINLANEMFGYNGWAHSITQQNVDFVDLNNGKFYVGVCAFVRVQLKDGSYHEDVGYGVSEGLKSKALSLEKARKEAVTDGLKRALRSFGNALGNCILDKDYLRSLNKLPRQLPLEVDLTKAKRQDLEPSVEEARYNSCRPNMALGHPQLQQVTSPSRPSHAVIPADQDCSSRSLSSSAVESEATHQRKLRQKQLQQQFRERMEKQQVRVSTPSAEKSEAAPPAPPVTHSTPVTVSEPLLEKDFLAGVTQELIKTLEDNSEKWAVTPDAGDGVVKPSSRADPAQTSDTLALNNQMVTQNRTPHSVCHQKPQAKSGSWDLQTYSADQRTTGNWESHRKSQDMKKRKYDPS
Experimental: In WaterLOGSY spectrum, if a compound binds to a protein, the compound will receive negative nuclear Overhauser effects (NOEs) due to the slow tumbling of the protein-compound complex, leading to a positive WaterLOGSY peak.
WaterLOGSY NMR analysis of the compound binding to RAD52 and RPA proteins: Compound binding to RAD52 and RPA proteins was analyzed using water-ligand observation with gradient spectroscopy (WaterLOGSY) NMR experiments (Dalvit et al., 2001, Dalvit et al., 2000). The WaterLOGSY spectra of compounds in the presence of RAD52 or RPA were acquired using a water NOE mixing time of 1 s and a T2 relaxation filter of 50 ms just before data acquisition to suppress the broad signals derived from protein. The protein buffer used in the experiments contains 10 mM Tris-d11, 75 mM KCl, 0.25 mM EDTA, pH 7.5, and 10% D20. All NMR data were acquired on a Bruker Avance II 800 MHz NMR spectrometer equipped with a sensitive cryoprobe and recorded at 25° C. The ^1H chemical shifts were referenced to 2,2-dimethyl-2-silapentane-5-sulfonate (DSS). NMR spectra were processed using NMR Pipe (Delaglio et al., 1995) and analysed using NMR View (Johnson and Blevins, 1994).

RAD52-dsDNA interaction = target: T3, RAD52-dsDNA interaction (Homo sapiens, UniProt P43351); assay: FRET-based RAD52-dsDNA binding assay; conditions: 1 nM dsDNA, 10 nM RAD52
T3 construct: made in house
T3 sequence (P43351 1-418): T2 sequence (P43351 1-418)
Description: These assays utilize two complementary single stranded 28-nucleotide-long substrates, which contain either Cy3 (T-28) or Cy5 (P-28) incorporated into the middle of the respective DNA strand. When the substrates are annealed by RAD52, the Cy3 and Cy5 dyes are separated by 3 base pairs and yield a high FRET signal (FIG. 2 Supplement 2). […] The annealing reactions were initiated by mixing two half reactions and observing the change in FRET over time in the presence of varying concentrations of small molecules. An increasing FRET value over time indicates formation of the dsDNA duplex which brings the two dyes in close proximity (FIG. 2 Supplement 2). Fitting the annealing data to a double exponential allowed us to calculate and compare the final extent of annealing at varying concentrations of each compound compared to RAD52 alone. We plotted the final extent of annealing vs the concentration of the compound and calculated an IC50 of annealing inhibition.
where FRET0 is the initial FRET value of RAD52-ssDNA complex in the absence of the compound and FRETmin is the FRET value at complete inhibition. FRET values were calculated as an average of three or more independent annealing reactions plotted against the concentration of the compound. […]

T1 sequence (P27694 whole entry partner, one chain of several): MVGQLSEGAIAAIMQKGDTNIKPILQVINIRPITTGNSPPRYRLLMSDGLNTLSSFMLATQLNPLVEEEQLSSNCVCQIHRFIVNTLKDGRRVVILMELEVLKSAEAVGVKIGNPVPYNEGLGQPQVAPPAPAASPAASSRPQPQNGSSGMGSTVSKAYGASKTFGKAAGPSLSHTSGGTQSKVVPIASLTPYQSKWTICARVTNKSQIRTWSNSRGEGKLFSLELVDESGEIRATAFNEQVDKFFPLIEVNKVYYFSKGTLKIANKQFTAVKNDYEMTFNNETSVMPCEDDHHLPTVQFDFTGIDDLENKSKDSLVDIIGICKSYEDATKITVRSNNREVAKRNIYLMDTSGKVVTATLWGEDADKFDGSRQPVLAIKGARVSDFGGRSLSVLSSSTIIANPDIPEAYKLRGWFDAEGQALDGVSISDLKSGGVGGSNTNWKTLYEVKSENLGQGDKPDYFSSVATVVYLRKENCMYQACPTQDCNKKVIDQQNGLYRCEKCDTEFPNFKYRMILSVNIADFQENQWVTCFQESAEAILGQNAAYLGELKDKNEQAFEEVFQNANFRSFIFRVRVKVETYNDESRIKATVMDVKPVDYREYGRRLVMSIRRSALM
T1 sequence (P15927 whole entry partner, one chain of several): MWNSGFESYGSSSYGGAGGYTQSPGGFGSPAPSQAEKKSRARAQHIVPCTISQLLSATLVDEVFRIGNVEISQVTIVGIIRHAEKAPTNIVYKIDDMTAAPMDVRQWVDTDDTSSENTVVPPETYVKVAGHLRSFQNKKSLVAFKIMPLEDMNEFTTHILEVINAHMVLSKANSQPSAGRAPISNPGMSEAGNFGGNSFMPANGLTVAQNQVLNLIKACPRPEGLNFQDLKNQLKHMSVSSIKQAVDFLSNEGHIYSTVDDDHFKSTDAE
T1 sequence (P35244 whole entry partner, one chain of several): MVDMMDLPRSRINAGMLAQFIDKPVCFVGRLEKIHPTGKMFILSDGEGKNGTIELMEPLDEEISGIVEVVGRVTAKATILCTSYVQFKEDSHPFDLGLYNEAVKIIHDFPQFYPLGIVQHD

SMILES: Oc1cc(O)c2c(c1)O[C@H](c1cc(O)c(O)c(O)c1)[C@H](O)C2 [Compound ‘1’, (−)-Epigallocatechin]
- Cell death after prolonged replication arrest (GM01604 cells [1]; BRCA2-depleted cells, HU 18 h): substantial increase in cell death
- Cell death (GM01604 cells [1]; BRCA2-depleted cells, after replication stress, 1 μM compound): ~80%
- Cell death after HU+UCN01 (GM01604 cells [1]; Ctrl siRNA cells, 1 μM compound): potentiated the effect of the combined HU+UCN01 treatment
- Dead cells (GM01604 cells [1]; checkpoint-deficient, HU treated, 1 μM compound): ~60%
- Dead cells (GM01604 cells [1]; untreated, 1 μM compound): approximately 40%
- Effect on MUS81 activity (anaphase bridges) (GM01604 cells [2]): does not affect MUS81 activity

SMILES: O=C(O[C@@H]1Cc2c(O)cc(O)cc2O[C@@H]1c1cc(O)c(O)c(O)c1)c1cc(O)c(O)c(O)c1 [Compound 6, Epigallocatechin-3-monogallate]
- Effect on the interaction between RAD52 and RPA proteins [3]: no effect
- Binding to RAD52 by WaterLOGSY (RAD52): positive WaterLOGSY peaks
- Effect on the RAD52-dsDNA interaction (RAD52-dsDNA interaction): able to displace dsDNA
